Publication PMC3010197 (Biochemistry, 2010)
“And” between values parts separate entries of the source, which are not always exact repeats. Identical values can stand only once. Like-named read-outs stand apart in the source and are kept apart here.

Legend:
[1] = system: Bovine glutamate dehydrogenase (GDH); conditions: GDH Km for NADPH; cited from earlier work
[2] = biological target: T1, SpNic (Streptococcus pneumoniae nicotinamidase) (Streptococcus pneumoniae, UniProt A0A0H2UR34); type: biochemical
[3] = biological target: T2, BbNic (Borrelia burgdorferi nicotinamidase) (Borreliella burgdorferi, UniProt O50718); type: biochemical
[4] = biological target: T3, PfNic (Plasmodium falciparum nicotinamidase) (Plasmodium falciparum, UniProt O97284); type: biochemical
[5] = biological target: T4, Pnc1 (Saccharomyces cerevisiae nicotinamidase) (Saccharomyces cerevisiae, UniProt P53184); assay: Substrate specificity: relative rates for nicotinamide analogues; type: biochemical
T4 sequence (P53184 1-216): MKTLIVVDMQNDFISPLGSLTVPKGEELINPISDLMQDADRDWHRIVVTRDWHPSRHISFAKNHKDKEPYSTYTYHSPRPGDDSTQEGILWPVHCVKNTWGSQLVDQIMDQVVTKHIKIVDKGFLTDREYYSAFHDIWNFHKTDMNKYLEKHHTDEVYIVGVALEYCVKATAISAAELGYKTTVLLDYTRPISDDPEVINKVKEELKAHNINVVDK

nicotinamidases = assay: Class-wide statements for all nicotinamidases studied; type: biochemical
[6] = biological target: S. cerevisiae nicotinamidase; conditions: reported as non-competitive; cited from earlier work
[7] = biological target: T4, Pnc1 (Saccharomyces cerevisiae nicotinamidase); assay: Inhibition analysis, GDH coupled nicotinamidase assay; type: biochemical; conditions: Km of nicotinamide over Ki of nicotinaldehyde
[8] = biological target: T3, PfNic (Plasmodium falciparum nicotinamidase); assay: biochemical
SPNic C136A mutant = assay: Nicotinamidase catalytic rate of SpNic and mutants; type: biochemical, Streptococcus pneumoniae; conditions: 200 µM NAM, 37 °C, HPLC assay
[9] = biological target: T4, Pnc1 (Saccharomyces cerevisiae nicotinamidase); assay: Steady state progress curve analysis, GDH coupled assay; conditions: substrate nicotinamide, 100 µM nicotinamide, pH 7.3
SPNic C136S mutant = assay: Nicotinamidase catalytic rate of SpNic and mutants; type: biochemical, Streptococcus pneumoniae; conditions: 200 µM NAM, 37 °C, HPLC assay
[10] = biological target: T2, BbNic (Borrelia burgdorferi nicotinamidase); assay: Steady state kinetics of nicotinamide hydrolysis, HPLC assay; type: biochemical; conditions: substrate nicotinamide, 100 mM phosphate pH 7.3
[11] = biological target: T1, SpNic (Streptococcus pneumoniae nicotinamidase); assay: Steady state progress curve analysis, GDH coupled assay; type: biochemical; conditions: substrate nicotinamide, 100 µM nicotinamide, pH 7.3
[12] = no reference given; cited from earlier work
Steady state analysis = substrate: NC(=O)c1cccnc1; assay: Steady state analysis; type: biochemical, Caenorhabditis elegans; conditions: other: substrate nicotinamide, initial rates, pH 7.3
[13] = footnote a: GDH coupled fluorescence assay, 500 µM analogue, pH 7.3
[14] = footnote b: HPLC assay, 500 µM analogue, pH 7.3, 37 °C

With `NC(=O)C1=CN([C@@H]2O[C@H](COP(=O)(O)OP(=O)(O)OC[C@H]3O[C@@H](n4cnc5c(N)ncnc54)[C@H](OP(=O)(O)O)[C@@H]3O)[C@@H](O)[C@H]2O)C=CC1` [NADPH, nicotinamide adenine dinucleotide phosphate reduced form] as the molecule, how does the Km [1] read?
The Km was 28 µM.

What does the source list for `Cc1cncc(C(N)=O)c1` [compound 1, 5-methylnicotinamide]?
Relative rate (nicotinamide = 1.00) [2, 13]: 1.63; Relative rate (nicotinamide = 1.00) [3, 13]: 0.51; Relative rate (nicotinamide = 1.00) [4, 13]: 3.30; Relative rate (nicotinamide = 1.00) [5, 13]: 0.80

With `COc1cncc(C(N)=O)c1` [compound 2, 5-Methoxynicotinamide] as the molecule, how does the “Relative rate (nicotinamide = 1.00)” value [2, 14] read?
The value was 1.37.

And the “Relative rate (nicotinamide = 1.00)” value [3, 14]?
The value was 2.21.

And the “Relative rate (nicotinamide = 1.00)” value [4, 14]?
The value was 6.46.

And the “Relative rate (nicotinamide = 1.00)” value [5, 14]?
The value was 2.06.

Which “Relative rate (nicotinamide = 1.00)” value [2, 14] does the source give for `NC(=O)c1cccnc1Cl` [compound 3, 2-chloronicotinamide] here?
Its value is 0.

And the “Relative rate (nicotinamide = 1.00)” value [3, 14]?
Its value is 0.

And the “Relative rate (nicotinamide = 1.00)” value [4, 14]?
Its value is 0.

And the “Relative rate (nicotinamide = 1.00)” value [5, 14]?
The value was 0.

For `NC(=O)c1ccc(Cl)nc1` [compound 4, 6-chloronicotinamide], which “Relative rate (nicotinamide = 1.00)” value [2, 14] is on record?
Its value is 0.018.

What about the “Relative rate (nicotinamide = 1.00)” value [3, 14] of the same molecule?
Its value is 0.

What about the “Relative rate (nicotinamide = 1.00)” value [4, 14] of the same molecule?
The value was 0.

What about the “Relative rate (nicotinamide = 1.00)” value [5, 14] of the same molecule?
Its value is 0.17.

With `Cc1ccc(C(N)=O)cn1` [compound 5, 6-methylnicotinamide] as the molecule, how does the “Relative rate (nicotinamide = 1.00)” value [2, 13] read?
Its value is 0.11.

What about the “Relative rate (nicotinamide = 1.00)” value [3, 13] of the same molecule?
Its value is 0.45.

What about the “Relative rate (nicotinamide = 1.00)” value [4, 13] of the same molecule?
The value was 0.40.

And the “Relative rate (nicotinamide = 1.00)” value [5, 13]?
Its value is 0.

Which “Relative rate (nicotinamide = 1.00)” value [2, 13] does the source give for `NC(=O)c1ccc(N)nc1` [compound 6, 6-aminonicotinamide] here?
Its value is 0.36.

And the “Relative rate (nicotinamide = 1.00)” value [4, 13]?
Its value is 0.45.

What about the “Relative rate (nicotinamide = 1.00)” value [5, 13] of the same molecule?
Its value is 0.20.

For `COc1ccncc1C(N)=O` [compound 7, 4-Methoxynicotinamide], which “Relative rate (nicotinamide = 1.00)” value [2, 14] is on record?
Its value is 0.065.

And the “Relative rate (nicotinamide = 1.00)” value [3, 14]?
Its value is 0.20.

What about the “Relative rate (nicotinamide = 1.00)” value [4, 14] of the same molecule?
Its value is 0.12.

What about the “Relative rate (nicotinamide = 1.00)” value [5, 14] of the same molecule?
Its value is 0.050.

Which results are given for `NC(=O)c1ccncc1` [compound 8, isonicotinamide]?
Relative rate (nicotinamide = 1.00) [2, 14]: 0; Relative rate (nicotinamide = 1.00) [4, 14]: 0; Relative rate (nicotinamide = 1.00) [5, 14]: 0

For `NC(=O)c1ccnc(N)c1` [compound 9, 2-Aminoisonicotinamide], which “Relative rate (nicotinamide = 1.00)” value [2, 14] is on record?
Its value is 0.

And the “Relative rate (nicotinamide = 1.00)” value [4, 14]?
Its value is 0.

What about the “Relative rate (nicotinamide = 1.00)” value [5, 14] of the same molecule?
Its value is 0.

For `NC(=S)c1cccnc1` [compound 10, Thionicotinamide], which “Relative rate (nicotinamide = 1.00)” value ([2]; no method footnote) is on record?
The value was 0.

What about the “Relative rate (nicotinamide = 1.00)” value ([3]; no method footnote) of the same molecule?
Its value is 0.

What about the “Relative rate (nicotinamide = 1.00)” value ([4]; no method footnote) of the same molecule?
The value was 0.

And the “Relative rate (nicotinamide = 1.00)” value ([5]; no method footnote)?
The value was 0.44.

Which results are given for `COC(=O)c1cccnc1` [compound 11, methylnicotinate]?
Relative rate (nicotinamide = 1.00) [2, 14]: 0.035; Relative rate (nicotinamide = 1.00) [4, 14]: 65.0; Relative rate (nicotinamide = 1.00) ([4]; footnote b: HPLC assay, 500 µM analogue, pH 7.3, 37 °C, listed as methylnicotinate): 65; steady state rate constant of turnover ([4]; methylnicotinate as substrate): 18 s⁻¹; Relative rate (nicotinamide = 1.00) [5, 14]: 0.15

What does the source list for `CCOC(=O)c1cccnc1` [compound 12, ethylnicotinate]?
Relative rate (nicotinamide = 1.00) [2, 14]: 0.0086; Relative rate (nicotinamide = 1.00) [4, 14]: 0.023; Relative rate (nicotinamide = 1.00) [5, 14]: 0.044

With `O=C(Oc1ccccc1)c1cccnc1` [compound 13, phenylnicotinate] as the molecule, how does the “Relative rate (nicotinamide = 1.00)” value [2, 14] read?
Its value is 0.031.

And the “Relative rate (nicotinamide = 1.00)” value [4, 14]?
Its value is 0.13.

And the “Relative rate (nicotinamide = 1.00)” value [5, 14]?
The value was 0.031.

Which “Relative rate (nicotinamide = 1.00)” value [2, 14] does the source give for `C[n+]1cccc(C(N)=O)c1` [compound 14, 1-Methylnicotinamide] here?
Its value is 0.

What about the “Relative rate (nicotinamide = 1.00)” value [4, 14] of the same molecule?
Its value is 0.

And the “Relative rate (nicotinamide = 1.00)” value [5, 14]?
Its value is 0.

With `C[n+]1ccc(C(N)=O)cc1` [compound 15, 1-methyl isonicotinamide] as the molecule, how does the “Relative rate (nicotinamide = 1.00)” value [2, 14] read?
The value was 0.

What about the “Relative rate (nicotinamide = 1.00)” value [4, 14] of the same molecule?
Its value is 0.

And the “Relative rate (nicotinamide = 1.00)” value [5, 14]?
The value was 0.

What does the source list for `O=Cc1cccnc1` [compound 16, nicotinaldehyde]?
factor by which Ki is smaller than the Km for nicotinamide (nicotinamidases; across all enzymes studied except yeast pnc1): 91–3450; mode of inhibition (double reciprocal plots) (nicotinamidases; versus nicotinamide, in all cases): competitive inhibition; Ki [6]: 68 µM; Km/Ki [7]: 7.6; Ki [8]: 0.034 ± 0.007 µM

Which Ki [8] does the source give for `Cc1cncc(C=O)c1` [compound 19, 5-methylnicotinaldehyde] here?
Its Ki is 0.023 ± 0.005 µM.

Which Ki [8] does the source give for `O=Cc1ccc(F)nc1` [compound 21, 6-Fluoro-3-pyridinecarboxaldehyde] here?
Its Ki is 4.9 µM.

With `N#Cc1cccnc1` [compound 23, 3-cyanopyridine] as the molecule, how does the Ki [8] read?
Its Ki is 1000 µM.

With `CC(=O)c1cccnc1` [compound 24, acetylpyridine] as the molecule, how does the Ki [8] read?
The Ki was 10 µM.

Which results are given for `NC(=O)c1cccnc1` [nicotinamide]?
Relative rate (nicotinamide = 1.00) ([2]; no method footnote): 1.00; Relative rate (nicotinamide = 1.00) ([3]; no method footnote): 1.00; Relative rate (nicotinamide = 1.00) ([4]; no method footnote): 1.00; Catalytic rate (kobs) (SPNic C136A mutant): < 10^−6 s^−1; kcat [9]: 3.8 s^−1 and 3.8 ± 0.1 ^b s^−1; Catalytic rate (kobs) (SPNic C136S mutant): < 10^−6 s^−1; Km ([10]; Michaelis-Menten fit): 36.7 ± 7.5 µM; kcat ([10]; confirmed by HPLC assay): 0.0030 ± 0.0002 ^b s^−1; Relative rate (nicotinamide = 1.00) ([5]; no method footnote): 1.00; kcat [11]: 2.1 s⁻¹

What does the source list for `O=C(O)c1cccnc1` [nicotinic acid, reference compound]?
effect on nicotinamidase rates (product inhibition) (nicotinamidases; nicotinic acid up to 500 µM, all enzymes, data not shown): do not vary; pKa [12]: ~3

B1: CePNC1 (Caenorhabditis elegans nicotinamidase 1) (Caenorhabditis elegans) (protein)
chain: DNSATTNNNTILGNQSLEAIPEQLSELTGITVEESERIMESWLGNRQLDLRTSVLFDQEVLSRLRSLRVALLVVDFQNDFVDGSLKIGDGDAGQEPSSAITPLNELLQLSSWDLVVYTKDWHPHNHISFLSQAHNSDRVMDEKDENKTLGFFDSVQFLKPIKTEQVLYPDHCIQKSWGSDIHPEIYIADNAEYIMKGVDPYLDSYSAFNDNNGRSKTELEDLLRRENIDAVVIAGLAYDICVRFTCLDAVKQNFLAAVIPECSAGLTKKGIEESEMAFKKQGVAMISKDEARGITEGGFLPREWVQRIVKK
With B1 as the molecule, how does the Km (Steady state analysis) read?
The Km was 113 ± 11 µM.

What about the kcat (Steady state analysis) of the same molecule?
Its kcat is 3.1 ± 0.12 s⁻¹.

B2: CePNC2 (Caenorhabditis elegans nicotinamidase 2) (Caenorhabditis elegans) (protein)
chain: MGVVQNEQDIREKMKNELISLVNEIDLIPELDRLLDDFIENKTWNEDTQELFTRVVLKPFTTLRTSLLVVDFQNDFVTGSLSIKEGDAEQDPLEALPHVNNLLENLNWNMIVYTQDWHPSNHISFFEHARNPDRELAPEDKSRKLRPFDIVRFVKPVSTIQVLYPSHCIQGGWGSQLHLGLQRIDGAHYIKKGADVYVDAYSAFSDNCGIKQSELEMLLRKNDINAVIGCGLAYDICVMHTLKDASKHGFLTCIVKSGSKGLSSLKMDEANKMFQKRGVAIIDDEMAQLISRREAFPIEWIRLLVHQAQSELHGKK
For B2, which Km (Steady state analysis) is on record?
Its Km is 76 ± 10 µM.

What about the kcat (Steady state analysis) of the same molecule?
Its kcat is 0.28 ± 0.013 s⁻¹.
